pIC50: −log10 of the molar value. Where only a bound is given, the exact number is not on record here.

The assay relates to Endogenous Huntingtin Protein. Put plainly: Endogenous Huntingtin Protein Assay (ELISA-based MSD electrochemiluminescence). The class given is cell-based. Particulars: Table 1. On the procedure:
Compounds of Formula (I) or Formula (II) were tested using the Meso Scale Discovery (MSD) Assay provided in International Application No. PCT/US2016/066042, filed on Dec. 11, 2016 and claiming priority to U.S. Provisional Application 62/265,652 filed on Dec. 10, 2015, the entire contents of which are incorporated herein by reference.
The Endogenous Huntingtin Protein assay used in Example 1 was developed using the ELISA-based MSD electrochemiluminescence assay platform.
Endogenous Huntingtin Protein Assay
Meso Scale Discovery (MSD) 96-well or 384-well plates were coated overnight at 4° C. with MW1 (expanded polyglutamine) or MAB2166 monoclonal antibody (for capture) at a concentration of 1 μg/mL in PBS (30 μL per well). Plates were then washed three times with 300 μL wash buffer (0.05% Tween-20 in PBS) and blocked (100 μL blocking buffer; 5% BSA in PBS) for 4-5 hours at room temperature with rotational shaking and then washed three times with wash buffer.
Samples (25 μL) were transferred to the antibody-coated MSD plate and incubated overnight at 4° C. After removal of the lysates, the plate was washed three times with wash buffer, and 25 μL of #5656S (Cell signaling; rabbit monoclonal) secondary antibody (diluted to 0.25 μg/mL in 0.05% Tween-20 in blocking buffer) was added to each well and incubated with shaking for 1 Hour at room temperature. Following incubation with the secondary antibody, the wells were rinsed with wash buffer after which 25 μL of goat anti-rabbit SULFO TAG secondary detection antibody (required aspect of the MSD system) (diluted to 0.25 μg/mL in 0.05% Tween-20 in blocking buffer) was added to each well and incubated with shaking for 1 hour at room temperature. After rinsing three times with wash buffer, 150 μL of read buffer T with surfactant (MSD) were added to each empty well, and the plate was imaged on a SI 6000 imager (MSD) according to manufacturers' instructions provided for 96- or 384-well plates.
`Cc1cn2cc(-c3ccc4nc(N(C)C5CC6CCC(C5)N6)sc4n3)cc(F)c2n1` (stereo not drawn) [Compound 277, N-[(3-exo)-8-azabicyclo[3.2.1]oct-3-yl]-5-(8-fluoro-2-methylimidazo[1,2-a]pyridin-6-yl)-N-methyl[1,3]thiazolo[5,4-b]pyridin-2-amine]: the pIC50 (commonly −log10 of the IC50, conventionally taken in molar units) is 6.30 to 7.00.

As to `Cc1cc(-c2cnc3nc(N(C)C4CC(C)(C)NC(C)(C)C4)sc3n2)cc2cn(C)nc12` [Compound 131, 6-(2,7-dimethyl-2H-indazol-5-yl)-N-methyl-N-(2,2,6,6-tetramethylpiperidin-4-yl)[1,3]thiazolo[4,5-b]pyrazin-2-amine], the pIC50 was not below 7.00.

In turn, `Cc1cn2cc(-c3cc4sc(N(C)C5CC6CCCC(C5)N6C)nc4cn3)cc(C#N)c2n1` (centres unmarked) [Compound 270, 2-methyl-6-{2-[methyl(9-methyl-9-azabicyclo[3.3.1]non-3-yl)amino][1,3]thiazolo[4,5-c]pyridin-6-yl}imidazo[1,2-a]pyridine-8-carbonitrile] gave a pIC50 not below 7.00.

The molecule `CN(c1nc2ccc(-c3ccc4nn(C)cc4c3)nc2s1)C1CC(C)(C)NC(C)(C)C1` [Compound 25, N-methyl-5-(2-methyl-2H-indazol-5-yl)-N-(2,2,6,6-tetramethylpiperidin-4-yl)[1,3]thiazolo[5,4-b]pyridin-2-amine] showed a pIC50 of 6.30 to 7.00.

`Oc1cc(-c2cn[nH]c2)ccc1-c1cc2sc(N3CC[C@H]4CNCC[C@H]43)nc2nn1` [Compound 344, 2-{6-[(3aS,7aR)-octahydro-1H-pyrrolo[3,2-c]pyridin-1-yl][1,3]thiazolo[4,5-c]pyridazin-3-yl]-5-(1H-pyrazol-4-yl)phenol] gave a pIC50 not below 7.00.

For the molecule `CCc1cc(-c2ccc3nc(C4CCNCC4)sc3c2)cc2cn(C)nc12` [Compound 85, 6-(7-ethyl-2-methyl-2H-indazol-5-yl)-2-(piperidin-4-yl)-1,3-benzothiazole], the pIC50 is 6.30 to 7.00.

As to `Cc1cn2cc(-c3cc4sc(N(C)C5CC(C)(C)NC(C)(C)C5)nc4nn3)cc(F)c2n1` [Compound 157, 3-(8-fluoro-2-methylimidazo[1,2-a]pyridin-6-yl)-N-methyl-N-(2,2,6,6-tetramethylpiperidin-4-yl)[1,3]thiazolo[4,5-c]pyridazin-6-amine], the pIC50 was not below 7.00.

For the molecule `CN(c1nc2c(F)cc(-c3cc(C#N)c4nn(C)cc4c3)cc2s1)C1CC(C)(C)NC(C)(C)C1` [Compound 91, 5-{4-fluoro-2-[methyl(2,2,6,6-tetramethylpiperidin-4-yl)amino]-1,3-benzothiazol-6-yl}-2-methyl-2H-indazole-7-carbonitrile], the pIC50 was not below 7.00.

Take `Cc1cn2nc(-c3cc(F)c4nc(C5CCNCC5)sc4c3)cc(C#N)c2n1` [Compound 230, 6-[4-fluoro-2-(piperidin-4-yl)-1,3-benzothiazol-6-yl]-2-methylimidazo[1,2-b]pyridazine-8-carbonitrile]: the pIC50 is not below 7.00.

The molecule `Cc1cn2cc(-c3cc(F)c4nc(N(C)C5CC(C)(C)NC(C)(C)C5)sc4c3)cc(C)c2n1` [Compound 39, 6-(2,8-dimethylimidazo[1,2-a]pyridin-6-yl)-4-fluoro-N-methyl-N-(2,2,6,6-tetramethylpiperidin-4-yl)-1,3-benzothiazol-2-amine] had a pIC50 not below 7.00.

For `CN1CC[C@H](N(C)c2nc3nnc(-c4ccc(-c5cn[nH]c5)cc4O)cc3s2)C[C@H]1CO` [Compound 372, 2-(6-{[(2S,4S)-2-(hydroxymethyl)-1-methylpiperidin-4-yl](methyl)amino}[1,3]thiazolo[4,5-c]pyridazin-3-yl)-5-(1H-pyrazol-4-yl)phenol], the pIC50 was not below 7.00.

Take `Cc1cn2cc(-c3ncc4nc(N(C)[C@H]5C[C@]6(C)CC[C@](C)(C5)N6)sc4n3)cc2c(C)n1` [Compound 323, N-[(1R,3s,5S)-1,5-dimethyl-8-azabicyclo[3.2.1]octan-3-yl]-5-(1,3-dimethylpyrrolo[1,2-a]pyrazin-7-yl)-N-methyl[1,3]thiazolo[5,4-d]pyrimidin-2-amine]: the pIC50 is not below 7.00.

With `CN1CCC(Nc2nc3nnc(-c4ccc(-c5cn[nH]c5)cc4O)cc3s2)CC1` [Compound 366, 2-{6-[(1-methylpiperidin-4-yl)amino][1,3]thiazolo[4,5-c]pyridazin-3-yl}-5-(1H-pyrazol-4-yl)phenol], the pIC50 was not below 7.00.

Turning to `CN(c1nc2cnc(-c3cc(C#N)c4nn(C)cc4c3)cc2s1)C1CCNCC1` [Compound 214, 2-methyl-5-{2-[methyl(piperidin-4-yl)amino][1,3]thiazolo[4,5-c]pyridin-6-yl}-2H-indazole-7-carbonitrile], the pIC50 is not below 7.00.

`Cc1cc(-c2ccc3nc(C4CCNCC4)sc3c2)cc2cn(C)nc12` [Compound 22, 6-(2,7-dimethyl-2H-indazol-5-yl)-2-(piperidin-4-yl)-1,3-benzothiazole] had a pIC50 not below 7.00.

For `Cc1cn2cc(-c3cc4sc(NC5CC6CCC(C5)N6)nc4cn3)cc(C#N)c2n1` (stereo not drawn) [Compound 199, 6-{2-[(3-exo)-8-azabicyclo[3.2.1]oct-3-ylamino][1,3]thiazolo[4,5-c]pyridin-6-yl}-2-methylimidazo[1,2-a]pyridine-8-carbonitrile], the pIC50 is not below 7.00.

As to `Cn1cc2cc(-c3ccc4nc(C5CCNC(C)(C)C5)sc4c3)ccc2n1` (centres unmarked) [Compound 115, 2-(2,2-dimethylpiperidin-4-yl)-6-(2-methyl-2H-indazol-5-yl)-1,3-benzothiazole], the pIC50 is 6.00 to 6.30.

As for `Oc1cc(-c2cn[nH]c2)ccc1-c1cc2sc(N3CC4(CCCNC4)C3)nc2nn1` [Compound 338, 2-[6-(2,6-diazaspiro[3.5]nonan-2-yl)[1,3]thiazolo[4,5-c]pyridazin-3-yl]-5-(1H-pyrazol-4-yl)phenol], the pIC50 is 6.00 to 6.30.

In the case of `Cn1cc2cc(-c3ccc4nc(C5CCNCC5)sc4c3)ccc2n1` [Compound 2, 6-(2-methyl-2H-indazol-5-yl)-2-(piperidin-4-yl)-1,3-benzothiazole], the pIC50 is 6.30 to 7.00.

Turning to `Cc1cn2cc(-c3cnc4nc(N5CCNCC5)sc4n3)cc(C#N)c2n1` [Compound 173, 2-methyl-6-[2-(piperazin-1-yl)[1,3]thiazolo[4,5-b]pyrazin-6-yl]imidazo[1,2-a]pyridine-8-carbonitrile], the pIC50 was 5.52 to 6.00.

In the case of `CN(c1nc2cnc(-c3cc(F)c4nn(C)cc4c3)nc2s1)C1CC(C)(C)NC(C)(C)C1` [Compound 124, 5-(7-fluoro-2-methyl-2H-indazol-5-yl)-N-methyl-N-(2,2,6,6-tetramethylpiperidin-4-yl)[1,3]thiazolo[5,4-d]pyrimidin-2-amine], the pIC50 is not below 7.00.

In turn, `Cc1cn2cc(-c3cc(F)c4nc(N(C)C5CCNCC5)sc4c3)cc2c(C)n1` [Compound 225, 6-(1,3-dimethylpyrrolo[1,2-a]pyrazin-7-yl)-4-fluoro-N-methyl-N-(piperidin-4-yl)-1,3-benzothiazol-2-amine] had a pIC50 not below 7.00.

Turning to `Cc1cn2nc(-c3cc(F)c4nc(C5CCN(C)CC5)sc4c3)ccc2n1` [Compound 92, 6-[4-fluoro-2-(1-methylpiperidin-4-yl)-1,3-benzothiazol-6-yl]-2-methylimidazo[1,2-b]pyridazine], the pIC50 was not below 7.00.

`CN(c1nc2nnc(-c3ccc(-c4cn[nH]c4)cc3O)cc2s1)[C@H]1CCNC[C@H]1F` [Compound 358, 2-(6-{[(3R,4S)-3-fluoropiperidin-4-yl](methyl)amino}[1,3]thiazolo[4,5-c]pyridazin-3-yl)-5-(1H-pyrazol-4-yl)phenol] gave a pIC50 of 6.00 to 6.30.

In turn, `CN(c1nc2cnc(-c3ccc4nn(C)cc4c3)cc2s1)C1CC2CCCC(C1)N2` (centres unmarked) [Compound 262, N-(9-azabicyclo[3.3.1]non-3-yl)-N-methyl-6-(2-methyl-2H-indazol-5-yl)[1,3]thiazolo[4,5-c]pyridin-2-amine] gave a pIC50 not below 7.00.

In turn, `Cc1nc2ccc(-c3cc(F)c4nc(C5CCNCC5)sc4c3)cc2o1` [Compound 70, 6-[4-fluoro-2-(piperidin-4-yl)-1,3-benzothiazol-6-yl]-2-methyl-1,3-benzoxazole] had a pIC50 not below 7.00.

`Cc1cn2nc(-c3cc(F)c4nc(C5=CCNCC5)sc4c3)cc(C)c2n1` [Compound 46, 6-[4-fluoro-2-(1,2,3,6-tetrahydropyridin-4-yl)-1,3-benzothiazol-6-yl]-2,8-dimethylimidazo[1,2-b]pyridazine]: the negative-log IC50 (pIC50) was not below 7.00.

Molecule `Cn1cc2cc(-c3cc(F)c4nc(C5CCNCC5)sc4c3)cc(F)c2n1` [Compound 126, 4-fluoro-6-(7-fluoro-2-methyl-2H-indazol-5-yl)-2-(piperidin-4-yl)-1,3-benzothiazole] showed a pIC50 not below 7.00.

Consider `Cc1cc(-c2cc(F)c3nc(N(C)C4CC(C)(C)NC(C)(C)C4)sc3c2)cc2cn(C)nc12` [Compound 24, 6-(2,7-dimethyl-2H-indazol-5-yl)-4-fluoro-N-methyl-N-(2,2,6,6-tetramethylpiperidin-4-yl)-1,3-benzothiazol-2-amine], for which the pIC50 is not below 7.00.

The values are drawn from patent publication US12139499B2, “Heteroaryl compounds for treating Huntington's disease” (PTC THERAPEUTICS, INC., priority 2018, dated 2024).
